Patent US7875604B2, “Compounds that inhibit HIV particle formation” (University of Virginia Patent Foundation, priority 2004, dated 2011)
Where two headings read alike, the source gives them in different places.

Assays:
HIV-1 Rev = molecular target: T1, HIV-1 Rev (Human immunodeficiency virus type 1 group M subtype B, UniProt P04618); assay: cell-based; settings: for TI (TC50/IC50): Rev assay
T1 construct: expressed in transfected cells
Method: The eight compounds listed in Table 1 were also tested in an assay that measured HIV-1 Rev function. […] The reporter used for these assays is the Renilla Luciferase protein, which is an enzyme that produces detectable light when mixed with certain chemicals. For this assay, a cell line has been developed in which the production of the reporter by the cells requires the function of HIV-1 Rev. Therefore, if a drug candidate inhibits the function of Rev, it decreases the amount of the reporter produced by the cells. By using Renilla Luciferase as the reporter, the inhibition of Rev is easily detected as a decrease in the amount of light produced by the cells when mixed with the appropriate chemicals.
(§1) Compounds were tested in the Rev assay using the maximum high-test concentration possible based on the supplied stocks as shown in Table 3. Compounds were prepared at a 2× high-test concentration by combining drug stock with tissue culture media at a ratio of 5 μL of drug to 995 μL of media. This 2× high-test sample was subsequently serially diluted in tissue culture media using 1/2 log dilutions. This series of 2× concentrated drug was subsequently diluted 1:1 by combining with an equal volume of cells in media in the 96-well plates used for the assay.

HIV-1 BR/93/021 = assay: Anti-HIV efficacy in fresh human PBMCs, reverse transcriptase readout, HIV-1 BR/93/021; format: cell-based; settings: for TI (TC50/IC50): HIV-1 BR/93/021, PBMCs; for IC50: HIV-1 BR/93/021, fresh human PBMCs, seven days, RT activity
Method: Compounds were evaluated for their ability to inhibit HIV replication in fresh human PBMCs. The assay was performed as follows.
Fresh human PBMCs, seronegative for HIV and HBV, were isolated from screened donors (Interstate Blood Bank, Inc. Memphis, Tenn.). Cells were pelleted/washed 2-3 times by low speed centrifugation and re-suspension in PBS to remove contaminating platelets. The Leukophoresed blood was then diluted 1:1 with Dulbecco's Phosphate Buffered Saline (DPBS) and layered over 14 mL of Lymphocyte Separation Medium (LSM; Cellgro® by Mediatech, Inc.; density 1.078+/−0.002 g/ml; Cat.#85-072-CL) in a 50 mL centrifuge tube and then centrifuged for 30 minutes at 600×g. Banded PBMCs were gently aspirated from the resulting interface and subsequently washed 2× with PBS by low speed centrifugation. After the final wash, cells were enumerated by trypan blue exclusion and re-suspended at 1×10^7 cells/mL in RPMI 1640 supplemented with 15% Fetal Bovine Serum (FBS), and 2 mM L-glutamine, 4 μg/mL Phytohemagglutinin (PHA-P, Sigma). The cells were allowed to incubate for 48-72 hours at 37° C. After incubation, PBMCs were centrifuged and resuspended in RPMI 1640 with 15% FBS, 2 mM L-glutamine, 100 U/mL penicillin, 100 μg/mL streptomycin, 10 μg/mL gentamycin, and 20 U/mL recombinant human IL-2 (R&D Systems, Inc). IL-2 is included in the culture medium to maintain the cell division initiated by the PHA mitogenic stimulation. PBMCs were maintained in this medium at a concentration of 1-2×10^6 cells/mL with biweekly medium changes until used in the assay protocol. Cells were kept in culture for a maximum of two weeks before being deemed too old for use in assays and discarded. Monocytes were depleted from the culture as the result of adherence to the tissue culture flask.
For the standard PBMC assay, PHA-P stimulated cells from at least two normal donors were pooled (mixed together), diluted in fresh medium to a final concentration of 1×10^6 cells/mL, and plated in the interior wells of a 96 well round bottom microplate at 50 μL/well (5×10^4 cells/well) in a standard format developed by the Infectious Disease Research department of Southern Research Institute. Pooling (mixing) of mononuclear cells from more than one donor is used to minimize the variability observed between individual donors, which results from quantitative and qualitative differences in HIV infection and overall response to the PHA and IL-2 of primary lymphocyte populations. Each plate contains virus/cell control wells (cells plus virus), experimental wells (drug plus cells plus virus) and compound control wells (drug plus media without cells, necessary for MTS monitoring of cytotoxicity). Since HIV-1 is not cytopathic to PBMCs, this allows the use of the same assay plate for both antiviral activity and cytotoxicity measurements. Test drug dilutions were prepared at a 2× concentration in microtiter tubes and 100 μL of each concentration was placed in appropriate wells using the standard format. 50 μL of a predetermined dilution of virus stock was placed in each test well (final MOI≅0.1). The PBMC cultures were maintained for seven days following infection at 37° C., 5% CO2. After this period, cell-free supernatant samples were collected for analysis of reverse transcriptase activity as a measure of virus release. Following removal of supernatant samples, compound cytotoxicity was measured by addition of MTS to the plates for determination of cell viability. Wells were also examined microscopically and any abnormalities were noted.
A microtiter plate-based reverse transcriptase (RT) reaction was utilized (Buckheit et al., AIDS Research and Human Retroviruses 7:295-302, 1991). Tritiated thymidine triphosphate (3H-TTP, 80 Ci/mmol, NEN) was received in 1:1 dH2O:Ethanol at 1 mCi/mL. […]

[1] = MTS staining for cell viability in U1 cell assay; format: cell-based; settings: human, U1 cells stimulated with TNF-α, read-out: TC50
Method: At the time of the assay, cells were collected by centrifugation and counted by hemacytometer. If cell viability by Trypan Blue dye exclusion was less than 70% the assay was terminated. The cells were adjusted to 5×10^4 cells/mL and 100 μL placed in 96 well plates with 100 μL media containing a final concentration of 5 ng/mL TNF-α and the test compound. Cultures were incubated for 3 days and supernatants harvested. Compound toxicity was determined by MTS dye reduction. Virus expression was measured by supernatant reverse transcriptase activity.
At assay termination, the assay plates were stained with the soluble tetrazolium-based dye MTS (CellTiter 96 Reagent, Promega) to determine cell viability and quantify compound toxicity as described for the PBMC assay.
as §1, with “U1 latency” for “Rev”, “which are listed” for “as shown”, “table” for “Table”, “3. Compounds were tested using the maximum high-test concentration possible based on the supplied stocks.” for “3.”, “assay. Temacrazine a known inhibitor of HIV transcription was used as a control compound that is active in the post-integration part of the HIV life cycle.” for “assay.”
as §1, with “were tested using the” for “were tested in the Rev assay using the”, “the supplied stocks. Compounds were” for “the supplied stocks as shown in Table 3. Compounds were”, “2× high-test (HT) sample was” for “2× high-test sample was”

[2] = 50% inhibition of Renilla Luciferase, 24 hours, HeLa reporter line, read-out: IC50
[3] = Human immunodeficiency virus 1, PBMC, 168 h

T1 sequence (P04618 whole entry, looked up): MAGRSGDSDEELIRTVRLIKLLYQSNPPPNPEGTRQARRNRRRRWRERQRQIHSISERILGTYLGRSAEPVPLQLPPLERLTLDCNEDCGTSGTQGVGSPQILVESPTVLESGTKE

Compound | IC50 (HIV-1 Rev; [2]) | TI (TC50/IC50) (HIV-1 Rev) | TI (TC50/IC50) (HIV-1 BR/93/021) | IC50 (HIV-1 BR/93/021) | IC50 (HIV-1 BR/93/021; [3]) | CC50 at 3 days ([1]; Table 6, MTS) | CC50 at 3 days ([1]; analogs, Table 8, MTS) | IC50 (HIV-1 Rev)
2-chloro-N-(4-methylphenyl)-4-(trifluoromethyl)-1,3-thazole-5-carboxamide [Compound 91161] | 9730 nM | >4.06 | 12.01 | 1940 nM |  |  |  | 
CCc1c(C(=O)Nc2ccccc2)c(C)nc2sc(C(N)=O)c(N)c12 [Compound 75168, 3-amino-4-ethyl-6-methyl-N˜5˜-phenylthieno[2,3-b]pyridine-2,5-dicarboxamide] | 2420 nM | 3.27 | >12.52 |  | 2140 nM |  |  | 
COc1ccc2cc3c(N)n[nH]c3nc2c1 [Compound 89246, 7-methoxy-1H-pyrazolo[3,4-b]quinolin-3-ylamine] | 480 nM | 17.52 | 69.57 |  | 470 nM | 24600 nM | 29000 nM | 
CCc1c(C)nc2sc(C(N)=O)c(N)c2c1C [Compound 103833, 3-amino-5-ethyl-4,6-dimethylthieno[2,3-b]pyridine-2-carboxamide] |  |  | >129.66 |  | 290 nM | > 37600 nM |  | 1070 nM
COc1ccc2nc(C(F)(F)F)c(C#N)c(N)c2c1 [Compound 104366, 4-amino-6-methoxy-2-(trifluoromethyl)-3-quinolinecarbonitrile] | 2240 nM | 7.68 | 38.91 |  | 640 nM | 12400 nM |  | 
CS(=O)(=O)c1ncc(-c2ccc(Br)cc2)cn1 [Compound 107129, -(4-bromophenyl)-2-(methylsulfonyl)pyrimidine] | 7480 nM | 4.13 | 3.48 |  | 1800 nM | > 53000 nM |  | 
COc1cccc(NC(=O)c2cc(Cl)nnc2Cl)c1 [Compound 107740, 3,6-dichloro-N-(3-methoxyphenyl)-4-pyridazinecarboxamide] | 8000 nM | 2.31 | 94.00 |  | 200 nM | > 29300 nM |  | 
Fc1ccc(Nc2ncnc3ccccc23)cc1Cl [Compound 109020, N-(3-chloro-4-fluorophenyl)-N-(4-quinazolinyl)amine] |  | >4.54 | >3.09 |  | 13200 nM | > 40800 nM |  | 8980 nM
